Molecular target: LSD1 (Homo sapiens, UniProt O60341)
Experiment: biochemical
Details: read-out: inhibits LSD1 activity
Method: MassSQUIRM Lysine residues were chemically dimethylated using a reductive methylation technique adapted from Rayment, et al (21). […] This reaction was incubated for 2 hours at 4° C. Fresh aliquots of borane dimethylamine and formaldehyde were added and the reaction was again incubated at 4° C. for two hours. A final aliquot of borane dimethylamine was added and the reaction was incubated at 4° C. for ˜16 hours. The reaction was quenched with 80 mM Tris-Cl, pH 7.5. Peptides were incubated with POROS R220 micron beads (Applied Biosystems), collected with a C18 ZipTip™ (Millipore) and spotted for MALDI analysis in 2,5-dihydroxybenzoic acid. Mass spectra of peptides were collected with a MALDI-prOTOF mass spectrometer (PerkinElmerSciex) (61, 62). Spectra were viewed and peak areas extracted using MoverZ™ software (Genomic Solutions). Reaction products were verified by MS^2 with a Thermo LTQ XL mass spectrometer coupled to a NanoLC-2D™ liquid chromatography system (Eksigent).
Demethylase Assay. […] The reaction proceeded for 2 hr at 37° C. Reaction products were collected with POROS R2 20 micron beads for 15 minutes at room temperature, loaded into a C18 ZipTip, eluted in 40 μL 70% acetonitrile/0.1% TFA, lyophilized, and subjected to MassSQUIRM as described above.
LSD1 Inhibition Assay. […]

inhibition at 16700 µM: 96%
SMILES: NNCCc1ccccc1 [phenylethylhydrazine]

From patent US8367366B2, “Methods and kits for quantitative methyltransferase and demethylase measurements” (The Board of Trustees of the University of Arkansas, priority 2010, dated 2013)
